Results published in patent publication US9815841B2, “Compounds” (GLAXOSMITHKLINE INTELLECTUAL PROPERTY DEVELOPMENT LIMITED, priority 2014, dated 2017).

These compounds were tested against T1, recombinant full length LRRK2 over-expressed in SH-SY5Y cells (Homo sapiens, UniProt Q5S007) (assay: Recombinant cellular LRRK2 AlphaScreen assay (LRRK2 Ser935 phosphorylation)). Details: SH-SY5Y cells with BacMam LRRK2, 60 minutes compound incubation, read-out: recombinant cellcular LRRK2 alphaScreen assay (pIC50) (converted).
T1 construct: A BacMam virus expressing full length recombinant LRRK2 was purchased from Invitrogen; host or cells: SH-SY5Y human neuroblastoma cells transduced with BacMam LRRK2 virus
Format: cell-based
Method: Recombinant Cellular LRRK2 AlphaScreen Assay
A BacMam virus expressing full length recombinant LRRK2 was purchased from Invitrogen and amplified by inoculation of SF-9 cells at MOI 0.3 for 4-5 days in Sf-900 III SFM medium supplemented with 3% fetal bovine serum. Infected cell cultures were then centrifuged at 2000 g for 20 minutes, viral supernatant titer determined by anti-gp64 plaque assay and stored at 4° C.
Affinity-purified anti-phospho LRRK2 Ser935 sheep polyclonal antibody (Dzamko et al., 2010, Biochem. J. 430: 405-413) was biotinylated by standard methods (PerkinElmer). Anti-LRRK2 rabbit polyclonal antibody was purchased from Novus Biologicals. AlphaScreen Protein A IgG Kit (including acceptor and donor beads) was purchased from Perkin Elmer.
SH-SY5Y cells were grown in DMEM/F12 medium with 10% dialysed fetal bovine serum and harvested by treatment with 0.5% trypsin-EDTA for 5 minutes at […] followed by centrifugation at 1000 rpm for 4 minutes. The cell pellet was resuspended in Opti-MEM reduced serum media (Invitrogen) at 200,000 cells/ml and mixed with the BacMam LRRK2 virus at MOI=50. 50 μl cell solutions were then dispensed to each well of a 384-well plate and incubated at 37° C., 5% CO2 for 24 hours.
Serial dilutions of test compounds were prepared in Opti-MEM reduced serum media (Invitrogen) and 5.6 ul transferred from compound plate to cell assay plate to achieve a top final assay concentration of 10 uM. DMSO was used in certain wells as controls. Cells were incubated at 37° C., 5% CO2 for 60 minutes. The medium was then removed and cells lysed by addition of 20 ul cell lysis buffer (Cell Signaling Technology) and incubation at 4° C. for 20 minutes. 10 ul of antibody/acceptor bead mix [(1/1000 biotinylated-pS935 LRRK2 antibody, 1/1000 total-LRRK2 antibody, 1/100 Acceptor beads in AlphaScreen detection buffer (25 mM Hepes (pH 7.4), 0.5% Triton X-100, 1 mg/ml Dextran 500 and 0.1% BSA)] was then added to each well and plates incubated for 2 hours at ambient temperature in the dark. 10 μl of donor beads solution (1/33.3 donor beads in AlphaScreen detection buffer) was then added to each well. Following incubation for a further 2 hours at ambient temperature in the dark, plates were read on an EnVision™ plate reader at emission 520-620 nm with excitation 680 nm. Dose response curve data was based on sigmoidal dose-response model.

T1 sequence (Q5S007 whole entry): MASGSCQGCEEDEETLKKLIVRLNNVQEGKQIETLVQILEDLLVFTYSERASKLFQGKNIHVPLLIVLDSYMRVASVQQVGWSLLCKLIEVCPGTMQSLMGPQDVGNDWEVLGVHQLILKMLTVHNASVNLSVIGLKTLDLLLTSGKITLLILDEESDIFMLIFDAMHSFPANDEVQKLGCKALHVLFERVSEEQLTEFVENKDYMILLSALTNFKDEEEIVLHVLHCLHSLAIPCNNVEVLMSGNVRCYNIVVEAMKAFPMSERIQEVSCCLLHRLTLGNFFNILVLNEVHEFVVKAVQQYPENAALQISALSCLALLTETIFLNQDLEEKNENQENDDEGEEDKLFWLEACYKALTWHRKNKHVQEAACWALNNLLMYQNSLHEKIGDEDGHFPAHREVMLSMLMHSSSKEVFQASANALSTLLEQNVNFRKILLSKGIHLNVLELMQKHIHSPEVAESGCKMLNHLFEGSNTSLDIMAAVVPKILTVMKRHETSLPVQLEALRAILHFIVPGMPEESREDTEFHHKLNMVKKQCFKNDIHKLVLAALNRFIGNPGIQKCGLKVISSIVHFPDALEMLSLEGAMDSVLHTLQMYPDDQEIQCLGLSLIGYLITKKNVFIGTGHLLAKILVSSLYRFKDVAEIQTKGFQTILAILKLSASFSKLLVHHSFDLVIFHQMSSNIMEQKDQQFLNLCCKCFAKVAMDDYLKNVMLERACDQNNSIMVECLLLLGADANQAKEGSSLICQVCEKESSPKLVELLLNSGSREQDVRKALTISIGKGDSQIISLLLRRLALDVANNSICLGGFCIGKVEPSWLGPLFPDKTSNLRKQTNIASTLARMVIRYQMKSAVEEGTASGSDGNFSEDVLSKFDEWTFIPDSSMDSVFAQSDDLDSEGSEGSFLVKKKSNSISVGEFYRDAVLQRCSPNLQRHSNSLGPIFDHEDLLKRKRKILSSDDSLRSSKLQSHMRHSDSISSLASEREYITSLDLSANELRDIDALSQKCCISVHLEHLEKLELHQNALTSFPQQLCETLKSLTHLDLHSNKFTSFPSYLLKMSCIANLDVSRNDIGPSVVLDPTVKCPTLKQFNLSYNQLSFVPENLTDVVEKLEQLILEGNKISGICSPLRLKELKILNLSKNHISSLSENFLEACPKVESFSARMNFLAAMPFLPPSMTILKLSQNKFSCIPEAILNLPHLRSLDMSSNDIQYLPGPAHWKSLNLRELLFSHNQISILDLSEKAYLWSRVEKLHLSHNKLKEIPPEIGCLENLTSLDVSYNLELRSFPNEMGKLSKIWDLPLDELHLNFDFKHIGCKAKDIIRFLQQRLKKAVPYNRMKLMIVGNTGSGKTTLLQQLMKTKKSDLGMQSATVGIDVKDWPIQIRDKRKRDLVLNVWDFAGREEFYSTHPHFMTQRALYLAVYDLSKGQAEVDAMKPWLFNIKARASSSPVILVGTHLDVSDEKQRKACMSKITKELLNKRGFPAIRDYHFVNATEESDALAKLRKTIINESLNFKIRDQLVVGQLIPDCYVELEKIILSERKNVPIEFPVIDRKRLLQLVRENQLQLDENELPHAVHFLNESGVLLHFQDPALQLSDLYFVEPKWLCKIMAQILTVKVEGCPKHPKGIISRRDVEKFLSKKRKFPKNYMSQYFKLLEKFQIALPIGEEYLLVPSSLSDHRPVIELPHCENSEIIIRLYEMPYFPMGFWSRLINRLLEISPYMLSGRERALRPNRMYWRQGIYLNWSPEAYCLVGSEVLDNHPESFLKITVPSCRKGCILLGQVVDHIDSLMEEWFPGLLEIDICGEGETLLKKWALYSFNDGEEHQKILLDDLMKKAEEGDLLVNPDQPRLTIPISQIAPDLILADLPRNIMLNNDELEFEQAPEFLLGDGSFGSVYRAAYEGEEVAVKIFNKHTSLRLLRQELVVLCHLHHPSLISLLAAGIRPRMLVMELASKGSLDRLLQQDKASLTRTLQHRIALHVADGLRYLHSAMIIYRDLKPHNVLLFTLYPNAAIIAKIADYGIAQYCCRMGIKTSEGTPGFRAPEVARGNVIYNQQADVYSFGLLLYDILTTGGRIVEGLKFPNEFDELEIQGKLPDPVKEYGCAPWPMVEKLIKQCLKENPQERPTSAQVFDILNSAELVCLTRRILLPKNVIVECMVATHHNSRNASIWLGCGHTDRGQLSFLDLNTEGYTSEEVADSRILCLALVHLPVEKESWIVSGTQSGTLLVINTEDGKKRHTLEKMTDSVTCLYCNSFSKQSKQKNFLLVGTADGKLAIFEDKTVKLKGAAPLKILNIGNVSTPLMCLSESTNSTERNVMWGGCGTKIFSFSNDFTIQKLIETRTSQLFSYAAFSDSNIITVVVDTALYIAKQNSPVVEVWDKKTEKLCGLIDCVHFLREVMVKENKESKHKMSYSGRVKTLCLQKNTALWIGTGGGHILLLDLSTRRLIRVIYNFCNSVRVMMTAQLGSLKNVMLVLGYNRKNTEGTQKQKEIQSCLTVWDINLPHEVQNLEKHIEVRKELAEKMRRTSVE

Compound | IC50 [nM]
CCOc1nc(Nc2ccc(C(=O)N3CCOCC3)cc2OC)nc2[nH]ccc12 [Example E1, (4-((4-ethoxy-7H-pyrrolo-[2,3-d]-pyrimidin-2-yl)amino)-3-methoxyphenyl)(morpholino)methanone] | 158
CCOc1nc(Nc2cc(F)c(C(=O)N3CCOCC3)cc2OC)nc2[nH]ccc12 [Example E2, (4-((4-ethoxy-7H-pyrrolo-[2,3-d]-pyrimidin-2-yl)amino)-2-fluoro-5-methoxyphenyl)(morpholino)methanone] | 200
CCOc1nc(Nc2ccc(C(=O)N3CCN(C)CC3)cc2OC)nc2[nH]ccc12 [Example E3, (4-((4-ethoxy-7H-pyrrolo-[2,3-d]-pyrimidin-2-yl)amino)-3-methoxyphenyl)(4-methylpiperazin-1-yl)-methanone] | 158
CCOc1nc(Nc2ccc(C(=O)N3CCC(N4CCN(C)CC4)CC3)cc2OC)nc2[nH]ccc12 [Example E4, (4-((4-ethoxy-7H-pyrrolo-[2,3-d]pyrimidin-2-yl)amino)-3-methoxyphenyl)(4-(4-methylpiperazin-1-yl)-piperidin-1-yl)-methanone] | ≤ 100
CCOc1nc(Nc2ccc(C(=O)N3CCOCC3)cc2)nc2[nH]ccc12 [Example E9, (4-((4-ethoxy-7H-pyrrolo-[2,3-d]pyrimidin-2-yl)amino)phenyl)(morpholino)methanone] | ≤ 100
CCOc1nc(Nc2ccc(C(=O)N3CCC4(CC3)CN(C)C4)cc2OC)nc2[nH]ccc12 [Example E13, (4-((4-ethoxy-7H-pyrrolo-[2,3-d]-pyrimidin-2-yl)amino)-3-methoxyphenyl)(2-methyl-2,7-diazaspiro-[3.5]-nonan-7-yl)methanone] | ≤ 100
CCOc1nc(Nc2ccc(C(=O)N3CCC4(CC3)CC4)cc2OC)nc2[nH]ccc12 [Example E16, (4-((4-ethoxy-7H-pyrrolo-[2,3-d]-pyrimidin-2-yl)amino)-3-methoxyphenyl)(6-azaspiro-[2.5]octan-6-yl)methanone] | 398
CCOc1cc(C(=O)N2CCOCC2)ccc1Nc1nc(OCC)c2cc[nH]c2n1 [Example E20, (3-ethoxy-4-((4-ethoxy-7H-pyrrolo-[2,3-d]pyrimidin-2-yl)amino)phenyl)(morpholino)methanone] | 200
CCOc1nc(Nc2ccc(C(=O)N3CCN(C)CC3)cc2OC(C)C)nc2[nH]ccc12 [Example E24, (4-((4-ethoxy-7H-pyrrolo-[2,3-d]pyrimidin-2-yl)amino)-3-isopropoxyphenyl)(4-methylpiperazin-1-yl)methanone] | 398
CCOc1nc(Nc2ccc(C(=O)N3CCOC[C@@H]3C)cc2OC)nc2[nH]ccc12 [Example E27, (S)-(4-((4-ethoxy-7H-pyrrolo-[2,3-d]pyrimidin-2-yl)amino)-3-methoxyphenyl)(3-methylmorpholino)methanone] | ≤ 100
CCOc1nc(Nc2ccc(C(=O)N3CCN(C)CC3)cc2OC)nc2[nH]cc(C)c12 [Example E31, (4-((4-ethoxy-5-methyl-7H-pyrrolo-[2,3-d]pyrimidin-2-yl)amino)-3-methoxyphenyl)(4-methylpiperazin-1-yl)methanone] | ≤ 100
CCOc1nc(Nc2ccc(C(=O)N3CCN(C)C[C@H]3C)cc2OC)nc2[nH]ccc12 [Example E40, (R)-(2,4-dimethylpiperazin-1-yl)(4-((4-ethoxy-7H-pyrrolo-[2,3-d]-pyrimidin-2-yl)-amino)-3-methoxyphenyl)methanone] | 50.1
